Laboratory results published in US11826399B2, “Chlorotoxin agents and uses thereof” (Eisai Inc., priority 2017, dated 2023).
Values joined by “and” are separate entries in the source; they are usually repeats but may differ in a detail not shown here. Equal values may be shown once.

Test: Plasma and tissue distribution of Cryptophycin Payload and Cryptophycin Metabolite 1 after Cryptophycin Payload alone or with CTX in PC-3 xenograft nude mice (LC-MS/MS)
Format: in vivo, mouse
Method: For the present experiment, materials, methods, drugs and model were as described in Example 21. […] Following intravenous administration, whole blood samples were collected at predetermined time points via cardiac puncture (n=3 mice per time point). Blood samples were centrifuged to obtain plasma and subsequently stored at […] or lower pending analysis. Additionally, at each time point, kidney, liver, small intestine, brain, heart, and tumor were harvested by removing entire specimen from surrounding tissues (only a portion of liver and small intestine were removed). After removal, tissues were rinsed with normal saline solution (contents of small intestine were emptied) and blotted dry with clean adsorptive tissue. Once dried, the specimens were weighed and stored at −20° C. or lower pending analysis. […] Pharmacokinetic (PK) parameters were calculated. Mean plasma and tissue concentrations were used to calculate mean PK parameters. Skin and skeletal muscle which were not assessed due to difficulty of homogenization.
Vehicle for single dose group was 10% ethanol, 5% Tween 80, 85% saline. Vehicle for combination treatment was 5% ethanol, 2.5% Tween 80, 92.5% saline.

[1] = Brain, Payload 0.4 mg/kg + CTX 16 mg/kg IV
[2] = Brain, Payload 0.4 mg/kg IV alone
[3] = Heart, Payload 0.4 mg/kg + CTX 16 mg/kg IV
[4] = Heart, Payload 0.4 mg/kg IV alone
[5] = Kidney, Payload 0.4 mg/kg + CTX 16 mg/kg IV
[6] = Kidney, Payload 0.4 mg/kg IV alone
[7] = Liver, Payload 0.4 mg/kg + CTX 16 mg/kg IV
[8] = Liver, Payload 0.4 mg/kg IV alone
[9] = Payload 0.4 mg/kg + CTX 16 mg/kg IV, 0.083 h
[10] = Payload 0.4 mg/kg + CTX 16 mg/kg IV, 0.5 h
[11] = Payload 0.4 mg/kg + CTX 16 mg/kg IV, 1 h
[12] = Payload 0.4 mg/kg + CTX 16 mg/kg IV, 2 h
[13] = Payload 0.4 mg/kg + CTX 16 mg/kg IV, 6 h
[14] = Payload 0.4 mg/kg + CTX 16 mg/kg IV, 24 h
[15] = Payload 0.4 mg/kg IV alone, 0.083 h
[16] = Payload 0.4 mg/kg IV alone, 0.5 h
[17] = Payload 0.4 mg/kg IV alone, 1 h
[18] = Payload 0.4 mg/kg IV alone, 2 h
[19] = Payload 0.4 mg/kg IV alone, 6 h
[20] = Payload 0.4 mg/kg IV alone, 24 h
[21] = Plasma, Payload 0.4 mg/kg + CTX 16 mg/kg IV
[22] = Plasma, Payload 0.4 mg/kg IV alone
[23] = Small Intestine, Payload 0.4 mg/kg + CTX 16 mg/kg IV
[24] = Small Intestine, Payload 0.4 mg/kg IV alone
[25] = Tumor, Payload 0.4 mg/kg + CTX 16 mg/kg IV
[26] = Tumor, Payload 0.4 mg/kg IV alone

COc1ccc(CC2NC(=O)C=CCC(C(C)C3OC3c3ccc(CN4CCN(CCC(C)(C)SC)CC4)cc3)OC(=O)C(CC(C)C)NC(=O)C(C)(C)CNC2=O)cc1Cl (stereo not drawn) [Cryptophycin Metabolite 1]
AUC(0-t) of Cryptophycin Metabolite 1 [1]: 5.38 ng·h/g
tmax of Cryptophycin Metabolite 1 [1]: 2.00 h
AUC(0-t) of Cryptophycin Metabolite 1 [2]: 4.42 ng·h/g
tmax of Cryptophycin Metabolite 1 [2]: 0.08 h
AUC(0-inf) of Cryptophycin Metabolite 1 [3]: 620 ng·h/g
AUC(0-t) of Cryptophycin Metabolite 1 [3]: 616 ng·h/g
t1/2 of Cryptophycin Metabolite 1 [3]: 3.17 h
tmax of Cryptophycin Metabolite 1 [3]: 0.08 h
AUC(0-inf) of Cryptophycin Metabolite 1 [4]: 396 ng·h/g
AUC(0-t) of Cryptophycin Metabolite 1 [4]: 394 ng·h/g
t1/2 of Cryptophycin Metabolite 1 [4]: 3.06 h
tmax of Cryptophycin Metabolite 1 [4]: 0.08 h
AUC(0-t) of Cryptophycin Metabolite 1 [5]: 2720 ng·h/g
tmax of Cryptophycin Metabolite 1 [5]: 2.00 h
AUC(0-inf) of Cryptophycin Metabolite 1 [6]: 1750 ng·h/g
AUC(0-t) of Cryptophycin Metabolite 1 [6]: 1720 ng·h/g
t1/2 of Cryptophycin Metabolite 1 [6]: 3.99 h
tmax of Cryptophycin Metabolite 1 [6]: 0.50 h
AUC(0-inf) of Cryptophycin Metabolite 1 [7]: 2930 ng·h/g
AUC(0-t) of Cryptophycin Metabolite 1 [7]: 2900 ng·h/g
t1/2 of Cryptophycin Metabolite 1 [7]: 4.04 h
tmax of Cryptophycin Metabolite 1 [7]: 0.08 h
AUC(0-inf) of Cryptophycin Metabolite 1 [8]: 1870 ng·h/g
AUC(0-t) of Cryptophycin Metabolite 1 [8]: 1820 ng·h/g
t1/2 of Cryptophycin Metabolite 1 [8]: 4.77 h
tmax of Cryptophycin Metabolite 1 [8]: 0.08 h
Concentration of Cryptophycin Metabolite 1, Brain, Mean [9]: 0.622 ng/g
Concentration of Cryptophycin Metabolite 1, Heart, Mean [9]: 107 ng/g
Concentration of Cryptophycin Metabolite 1, Kidney, Mean [9]: 115 ng/g
Concentration of Cryptophycin Metabolite 1, Liver, Mean [9]: 1540 ng/g
Concentration of Cryptophycin Metabolite 1, Plasma, Mean [9]: 10.8 ng/mL
Concentration of Cryptophycin Metabolite 1, Small Intestine, Mean [9]: 10.4 ng/g
Concentration of Cryptophycin Metabolite 1, Tumor, Mean [9]: 2.61 ng/g
Concentration of Cryptophycin Metabolite 1, Brain, Mean [10]: 0.641 ng/g
Concentration of Cryptophycin Metabolite 1, Heart, Mean [10]: 94.9 ng/g
Concentration of Cryptophycin Metabolite 1, Kidney, Mean [10]: 252 ng/g
Concentration of Cryptophycin Metabolite 1, Liver, Mean [10]: 1000 ng/g
Concentration of Cryptophycin Metabolite 1, Plasma, Mean [10]: 8.10 ng/mL
Concentration of Cryptophycin Metabolite 1, Small Intestine, Mean [10]: 18.5 ng/g
Concentration of Cryptophycin Metabolite 1, Tumor, Mean [10]: 2.69 ng/g
Concentration of Cryptophycin Metabolite 1, Brain, Mean [11]: 1.07 ng/g
Concentration of Cryptophycin Metabolite 1, Heart, Mean [11]: 77.1 ng/g
Concentration of Cryptophycin Metabolite 1, Kidney, Mean [11]: 285 ng/g
Concentration of Cryptophycin Metabolite 1, Liver, Mean [11]: 1370 ng/g
Concentration of Cryptophycin Metabolite 1, Plasma, Mean [11]: 12.4 ng/mL
Concentration of Cryptophycin Metabolite 1, Small Intestine, Mean [11]: 26.9 ng/g
Concentration of Cryptophycin Metabolite 1, Tumor, Mean [11]: 3.90 ng/g
Concentration of Cryptophycin Metabolite 1, Brain, Mean [12]: 1.09 ng/g
Concentration of Cryptophycin Metabolite 1, Heart, Mean [12]: 87.9 ng/g
Concentration of Cryptophycin Metabolite 1, Kidney, Mean [12]: 370 ng/g
Concentration of Cryptophycin Metabolite 1, Liver, Mean [12]: 335 ng/g
Concentration of Cryptophycin Metabolite 1, Plasma, Mean [12]: 5.12 ng/mL
Concentration of Cryptophycin Metabolite 1, Small Intestine, Mean [12]: 21.8 ng/g
Concentration of Cryptophycin Metabolite 1, Tumor, Mean [12]: 9.66 ng/g
Concentration of Cryptophycin Metabolite 1, Brain, Mean [13]: 0.725 ng/g
Concentration of Cryptophycin Metabolite 1, Heart, Mean [13]: 43.7 ng/g
Concentration of Cryptophycin Metabolite 1, Kidney, Mean [13]: 191 ng/g
Concentration of Cryptophycin Metabolite 1, Liver, Mean [13]: 53.6 ng/g
Concentration of Cryptophycin Metabolite 1, Plasma, Mean [13]: 2.15 ng/mL
Concentration of Cryptophycin Metabolite 1, Small Intestine, Mean [13]: 14.8 ng/g
Concentration of Cryptophycin Metabolite 1, Tumor, Mean [13]: 12.2 ng/g
Concentration of Cryptophycin Metabolite 1, Brain, Mean [14]: BLQ
Concentration of Cryptophycin Metabolite 1, Heart, Mean [14]: 0.763 ng/g
Concentration of Cryptophycin Metabolite 1, Kidney, Mean [14]: 9.65 ng/g
Concentration of Cryptophycin Metabolite 1, Liver, Mean [14]: 5.15 ng/g
Concentration of Cryptophycin Metabolite 1, Plasma, Mean [14]: 0.384 ng/mL
Concentration of Cryptophycin Metabolite 1, Small Intestine, Mean [14]: 4.02 ng/g
Concentration of Cryptophycin Metabolite 1, Tumor, Mean [14]: 10.8 ng/g
Concentration of Cryptophycin Metabolite 1, Brain, Mean [15]: 1.46 ng/g
Concentration of Cryptophycin Metabolite 1, Heart, Mean [15]: 87.1 ng/g
Concentration of Cryptophycin Metabolite 1, Kidney, Mean [15]: 225 ng/g
Concentration of Cryptophycin Metabolite 1, Liver, Mean [15]: 2710 ng/g
Concentration of Cryptophycin Metabolite 1, Plasma, Mean [15]: 23.6 ng/mL
Concentration of Cryptophycin Metabolite 1, Small Intestine, Mean [15]: 22.2 ng/g
Concentration of Cryptophycin Metabolite 1, Tumor, Mean [15]: 2.36 ng/g
Concentration of Cryptophycin Metabolite 1, Brain, Mean [16]: 0.895 ng/g
Concentration of Cryptophycin Metabolite 1, Heart, Mean [16]: 80.2 ng/g
Concentration of Cryptophycin Metabolite 1, Kidney, Mean [16]: 361 ng/g
Concentration of Cryptophycin Metabolite 1, Liver, Mean [16]: 499 ng/g
Concentration of Cryptophycin Metabolite 1, Plasma, Mean [16]: 8.37 ng/mL
Concentration of Cryptophycin Metabolite 1, Small Intestine, Mean [16]: 29.7 ng/g
Concentration of Cryptophycin Metabolite 1, Tumor, Mean [16]: 3.27 ng/g
Concentration of Cryptophycin Metabolite 1, Brain, Mean [17]: 0.983 ng/g
Concentration of Cryptophycin Metabolite 1, Heart, Mean [17]: 70.3 ng/g
Concentration of Cryptophycin Metabolite 1, Kidney, Mean [17]: 294 ng/g
Concentration of Cryptophycin Metabolite 1, Liver, Mean [17]: 310 ng/g
Concentration of Cryptophycin Metabolite 1, Plasma, Mean [17]: 6.46 ng/mL
Concentration of Cryptophycin Metabolite 1, Small Intestine, Mean [17]: 24.3 ng/g
Concentration of Cryptophycin Metabolite 1, Tumor, Mean [17]: 3.41 ng/g
Concentration of Cryptophycin Metabolite 1, Brain, Mean [18]: 0.887 ng/g
Concentration of Cryptophycin Metabolite 1, Heart, Mean [18]: 52.8 ng/g
Concentration of Cryptophycin Metabolite 1, Kidney, Mean [18]: 249 ng/g
Concentration of Cryptophycin Metabolite 1, Liver, Mean [18]: 194 ng/g
Concentration of Cryptophycin Metabolite 1, Plasma, Mean [18]: 4.32 ng/mL
Concentration of Cryptophycin Metabolite 1, Small Intestine, Mean [18]: 23.1 ng/g
Concentration of Cryptophycin Metabolite 1, Tumor, Mean [18]: 4.01 ng/g
Concentration of Cryptophycin Metabolite 1, Brain, Mean [19]: 0.412 ng/g
Concentration of Cryptophycin Metabolite 1, Heart, Mean [19]: 25.4 ng/g
Concentration of Cryptophycin Metabolite 1, Kidney, Mean [19]: 91.2 ng/g
Concentration of Cryptophycin Metabolite 1, Liver, Mean [19]: 37.2 ng/g
Concentration of Cryptophycin Metabolite 1, Plasma, Mean [19]: 1.86 ng/mL
Concentration of Cryptophycin Metabolite 1, Small Intestine, Mean [19]: 26.1 ng/g
Concentration of Cryptophycin Metabolite 1, Tumor, Mean [19]: 5.33 ng/g
Concentration of Cryptophycin Metabolite 1, Brain, Mean [20]: BLQ
Concentration of Cryptophycin Metabolite 1, Heart, Mean [20]: 0.387 ng/g
Concentration of Cryptophycin Metabolite 1, Kidney, Mean [20]: 4.88 ng/g
Concentration of Cryptophycin Metabolite 1, Liver, Mean [20]: 7.89 ng/g
Concentration of Cryptophycin Metabolite 1, Plasma, Mean [20]: 0.141 ng/mL
Concentration of Cryptophycin Metabolite 1, Small Intestine, Mean [20]: 1.50 ng/g
Concentration of Cryptophycin Metabolite 1, Tumor, Mean [20]: 4.91 ng/g
AUC(0-inf) of Cryptophycin Metabolite 1 [21]: 53.2 ng·h/mL
AUC(0-t) of Cryptophycin Metabolite 1 [21]: 49.9 ng·h/mL
Cmax of Cryptophycin Metabolite 1 [21]: 12.4 ng/mL
t1/2 of Cryptophycin Metabolite 1 [21]: 6.24 h
tmax of Cryptophycin Metabolite 1 [21]: 1.0 h
AUC(0-inf) of Cryptophycin Metabolite 1 [22]: 40.7 ng·h/mL
AUC(0-t) of Cryptophycin Metabolite 1 [22]: 39.8 ng·h/mL
Cmax of Cryptophycin Metabolite 1 [22]: 23.6 ng/mL
t1/2 of Cryptophycin Metabolite 1 [22]: 4.57 h
tmax of Cryptophycin Metabolite 1 [22]: 0.083 h and 0.08 h
AUC(0-inf) of Cryptophycin Metabolite 1 [23]: 316 ng·h/g
AUC(0-t) of Cryptophycin Metabolite 1 [23]: 263 ng·h/g
t1/2 of Cryptophycin Metabolite 1 [23]: 9.18 h
tmax of Cryptophycin Metabolite 1 [23]: 1.00 h
AUC(0-inf) of Cryptophycin Metabolite 1 [24]: 314 ng·h/g
AUC(0-t) of Cryptophycin Metabolite 1 [24]: 302 ng·h/g
t1/2 of Cryptophycin Metabolite 1 [24]: 5.15 h
tmax of Cryptophycin Metabolite 1 [24]: 0.50 h
AUC(0-t) of Cryptophycin Metabolite 1 [25]: 259 ng·h/g
tmax of Cryptophycin Metabolite 1 [25]: 6.00 h
AUC(0-t) of Cryptophycin Metabolite 1 [26]: 117 ng·h/g
tmax of Cryptophycin Metabolite 1 [26]: 6.00 h
